Laboratory results published in US20230145835A1, “Modulators of Alpha-4-beta-7 Integrin and MAdCAM” (48HD Biopharma Inc., priority 2021, published 2023).
Numbered stars: 1 amine (or outer) side, 2 acyl side, 3 side chain; on linkers, the order of the positions; unused ones are H or OH. Bridge positions count the residues as written; N and C are the ends. Square brackets hold non-standard residues; d marks the D form. Peptide text beside a SMILES is read from it. X3 = O=C(/C=N/OCCCCCCOc1cc(C[*:2])cc(C[*:3])c1)[*:1]; X1 = O=C(C=NOCCCCCCOc1cc(C[*:2])cc(C[*:3])c1)[*:1]; Met(O) = CS(=O)CC[C@H](N)C(=O)O; Cba = N[C@@H](CC1CCC1)C(=O)O; hSer = N[C@@H](CCO)C(=O)O; Nle = CCCC[C@H](N)C(=O)O

What follows are compounds tested against T1, rh-integrin α4β7/LPAM-1 (Homo sapiens, UniProt P13612+P26010) (assay: α4β7-MadCAM Competition ELISA (Example 4)). Settings: IC50, Table 3 Representative compounds; inhibition of MAdCAM binding to coated α4β7.
T1 sequence (P13612 34-977 limits assumed): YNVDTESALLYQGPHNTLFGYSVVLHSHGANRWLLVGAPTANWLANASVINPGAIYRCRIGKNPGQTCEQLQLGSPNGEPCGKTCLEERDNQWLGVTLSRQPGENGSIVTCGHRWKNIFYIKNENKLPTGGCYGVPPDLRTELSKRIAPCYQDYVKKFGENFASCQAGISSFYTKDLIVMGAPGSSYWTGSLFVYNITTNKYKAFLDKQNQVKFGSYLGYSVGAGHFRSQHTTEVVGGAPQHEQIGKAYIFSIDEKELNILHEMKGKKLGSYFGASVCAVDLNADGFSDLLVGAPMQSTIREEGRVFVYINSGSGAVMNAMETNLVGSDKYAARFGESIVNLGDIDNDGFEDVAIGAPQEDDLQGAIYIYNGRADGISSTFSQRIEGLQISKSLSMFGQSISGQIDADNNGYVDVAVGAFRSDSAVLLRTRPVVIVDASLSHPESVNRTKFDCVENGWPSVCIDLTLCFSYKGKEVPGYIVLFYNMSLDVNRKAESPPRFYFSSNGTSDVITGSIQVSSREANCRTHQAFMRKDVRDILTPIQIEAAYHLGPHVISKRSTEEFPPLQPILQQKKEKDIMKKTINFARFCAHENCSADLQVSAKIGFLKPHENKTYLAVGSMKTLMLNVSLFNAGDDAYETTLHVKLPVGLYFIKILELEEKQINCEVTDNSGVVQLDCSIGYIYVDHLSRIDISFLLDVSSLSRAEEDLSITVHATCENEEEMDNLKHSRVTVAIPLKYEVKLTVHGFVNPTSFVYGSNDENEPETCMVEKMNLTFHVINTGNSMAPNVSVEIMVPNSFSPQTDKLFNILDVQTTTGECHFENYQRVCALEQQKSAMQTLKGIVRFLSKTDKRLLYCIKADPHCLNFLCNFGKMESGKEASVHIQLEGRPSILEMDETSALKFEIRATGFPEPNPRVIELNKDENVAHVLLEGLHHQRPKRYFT
T1 sequence (P26010 20-723 limits assumed): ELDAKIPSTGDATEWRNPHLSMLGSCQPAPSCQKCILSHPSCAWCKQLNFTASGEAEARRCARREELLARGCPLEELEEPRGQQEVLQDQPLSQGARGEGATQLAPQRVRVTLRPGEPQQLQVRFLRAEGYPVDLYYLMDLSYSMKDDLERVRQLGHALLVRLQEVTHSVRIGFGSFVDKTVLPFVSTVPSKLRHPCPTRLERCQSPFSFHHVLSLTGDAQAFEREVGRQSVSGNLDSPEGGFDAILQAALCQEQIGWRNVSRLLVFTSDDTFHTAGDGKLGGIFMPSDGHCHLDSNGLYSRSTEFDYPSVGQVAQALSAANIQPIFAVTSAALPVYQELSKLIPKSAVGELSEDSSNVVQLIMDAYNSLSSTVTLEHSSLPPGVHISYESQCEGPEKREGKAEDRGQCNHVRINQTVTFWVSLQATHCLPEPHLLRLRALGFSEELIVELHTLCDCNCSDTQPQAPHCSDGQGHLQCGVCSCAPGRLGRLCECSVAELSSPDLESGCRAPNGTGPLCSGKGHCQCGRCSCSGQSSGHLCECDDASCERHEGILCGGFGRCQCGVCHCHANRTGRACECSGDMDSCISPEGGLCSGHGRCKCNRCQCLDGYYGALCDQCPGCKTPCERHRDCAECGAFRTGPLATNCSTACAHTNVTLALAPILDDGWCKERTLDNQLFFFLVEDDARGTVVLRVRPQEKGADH
Assay type: binding
Description: After washing with wash buffer, 200 μL assay buffer was added to each well and incubated for one hour at 28° C. After another wash with wash buffer, 100 μL of a MAdCAM and peptide mixture in assay buffer was added to each well and incubated for one hour at 28° C., followed by washing with wash buffer.

`CC[C@H](C)[C@@H]1NC(=O)[C@H](CC(=O)O)NC(=O)[C@H](CCOC)NC(=O)[C@@H]2CCCN2C(=O)[C@@H]2CSCc3cc(cc(c3)OCCCCCCO/N=C/C(=O)N[C@@H](CCCNC(=N)N)C(=O)N2)CSC[C@@H](C(N)=O)NC(=O)[C@H](CCC(=O)O)NC(=O)[C@H](Cc2ccc(O)cc2)NC(=O)[C@H](Cc2c[nH]c3ccccc23)NC1=O` [compound 48, TSL6- SRCP{Hse(OMe)} DIWYEC] (RCP[hSer](Me)DIWYEC-NH2; linker N-2-10 via X3) was tested, and the IC50 was 1.71 µM.

Same assay, conditions: Table 3 Representative compounds; inhibition of MAdCAM binding to coated α4β7; read-out: IC50

Going from `CCCC[C@@H]1NC(=O)[C@H](CO)NC(=O)[C@@H]2CSSC[C@@H](C(=O)N[C@@H](Cc3c[nH]c4ccccc34)C(=O)N[C@@H](CCC(N)=O)C(N)=O)NC(=O)[C@H](CC(C)C)NC(=O)[C@@H](CC(=O)O)NC(=O)[C@H](CCCC)NC(=O)[C@H](CO)NC(=O)[C@H](CCCNC(=N)N)NC(=O)[C@H](CSCC(=O)N[C@@H](CCCNC(=N)N)C(=O)N2)NC(=O)[C@H](CC(C)C)NC(=O)[C@H](CC(=O)O)NC1=O` [compound 103, Disulfide- RCS{Nle}DICRS NleDICWQ] ({CH2CO}-RCS[Nle]DLCRS[Nle][dD]LCWQ-NH2; disulfide 2-13; thioether N-7) to `CCCC[C@@H]1NC(=O)[C@@H]2CCCN2C(=O)[C@@H]2CSCc3cc(cc(c3)OCCCCCCO/N=C/C(=O)N[C@@H](CCCNC(=N)N)C(=O)N2)CSC[C@@H](C(N)=O)NC(=O)[C@H](CCC(=O)O)NC(=O)[C@H](CCC(N)=O)NC(=O)[C@H](Cc2c[nH]c3ccccc23)NC(=O)[C@H](CC2CCC2)NC(=O)[C@H](CC(=O)O)NC1=O` [compound 55, TSL6-SRCP{Nle}D {CbA}WQEC] (RCP[Nle]D[Cba]WQEC-NH2; linker N-2-10 via X3), the IC50 falls from 263 µM to 3.45 µM (76-fold).

Compared with `CSCC[C@@H]1NC(=O)[C@@H]2CCCN2C(=O)[C@@H]2CSCc3cc(cc(c3)OCCCCCCO/N=C/C(=O)N[C@@H](CCC(N)=O)C(=O)N2)CSC[C@@H](C(N)=O)NC(=O)[C@H]([C@@H](C)O)NC(=O)[C@@H]2CCCN2C(=O)[C@H](C(C)C)NC(=O)[C@H](CC(=O)O)NC1=O` [compound 28, TSL6- SQCPMDVPTC] (QCPMDVPTC-NH2; linker N-2-9 via X3), `CC[C@H](C)[C@@H]1NC(=O)[C@H](C)NC(=O)[C@H](CCSC)NC(=O)[C@@H]2CCCN2C(=O)[C@@H]2CSCc3cc(cc(c3)OCCCCCCO/N=C/C(=O)N[C@@H](CCC(N)=O)C(=O)N2)CSC[C@@H](C(N)=O)NC(=O)[C@H]([C@@H](C)O)NC(=O)[C@@H]2CCCN2C1=O` [compound 110, TSL6- SQCPMAIPTC] (QCPMAIPTC-NH2; linker N-2-9 via X3) is higher in IC50: 0.672 µM for the first, greater than 500 µM for the second.

First: CC(C)C[C@@H]1NC(=O)[C@H](Cc2ccccc2)NC(=O)[C@@H]2CSCc3cc(cc(c3)OCCCCCCO/N=C/C(=O)N[C@@H]([C@@H](C)O)C(=O)N2)CSC[C@@H](C(N)=O)NC(=O)[C@H](CC(N)=O)NC(=O)[C@H](CCCCN)NC(=O)[C@H](C(C)C)NC(=O)[C@H](CC(=O)O)NC1=O [compound 104, TSL6- STCFLDVKNC] (TCFLDVKNC-NH2; linker N-2-9 via X3)
Second: CC[C@H](C)[C@@H]1NC(=O)[C@H](C(C)C)NC(=O)[C@H](CC(=O)O)NC(=O)[C@H](CC(C)C)NC(=O)[C@H](CCSC)NC(=O)[C@@H]2CSCc3cc(cc(c3)OCCCCCCO/N=C/C(=O)N[C@@H](C)C(=O)N2)CSC[C@@H](C(N)=O)NC(=O)[C@H](CO)NC1=O [compound 85, TSL6- SACMLDVISC] (ACMLDVISC-NH2; linker N-2-9 via X3)
The IC50 of the first is 4.7-fold higher: 311 µM for the first, 66.6 µM for the second. The second is the more potent here.

Compared with `CC[C@H](C)[C@@H]1NC(=O)[C@H](CC(=O)O)NC(=O)[C@H](CCOC)NC(=O)[C@@H]2CCCN2C(=O)[C@@H]2CSCc3cc(cc(c3)OCCCCCCO/N=C/C(=O)N[C@@H](CCCNC(=N)N)C(=O)N2)CSC[C@@H](C(N)=O)NC(=O)[C@H](CCC(=O)O)NC(=O)[C@H](CCC(N)=O)NC(=O)[C@H](Cc2c[nH]c3ccccc23)NC1=O` [compound 14] (RCP[hSer](Me)DIWQEC-NH2; linker N-2-10 via X3), `CC(C)C[C@@H]1NC(=O)[C@@H]2CCCN2C(=O)[C@@H]2CSCc3cc(cc(c3)OCCCCCCO/N=C/C(=O)N[C@@H](CCCCN)C(=O)N2)CSC[C@@H](C(N)=O)NC(=O)[C@H](CCC(=O)O)NC(=O)[C@H](CCC(N)=O)NC(=O)[C@@H]2CCCN2C(=O)[C@H]([C@@H](C)O)NC(=O)[C@H](CC(=O)O)NC1=O` [compound 26, TSL6- SKCPLDTPQEC] (KCPLDTPQEC-NH2; linker N-2-10 via X3) is 2.3-fold higher in IC50: 0.26 µM for the first, 0.602 µM for the second. The first is the more potent here.

Going from `CSCC[C@@H]1NC(=O)/C=N/OCCCCCCOc2cc3cc(c2)CSC[C@H](NC1=O)C(=O)N1CCC[C@H]1C(=O)N[C@@H](CC(C)C)C(=O)N[C@@H](Cc1ccc(O)cc1)C(=O)N[C@@H](CCCCN)C(=O)N[C@@H](C(C)C)C(=O)N[C@@H](Cc1cnc[nH]1)C(=O)N[C@H](C(N)=O)CSC3` [compound 98, TSL6- SMCPLYKVHC] (MCPLYKVHC-NH2; linker N-2-9 via X3) to `CC(C)C[C@@H]1NC(=O)[C@@H]2CCCN2C(=O)[C@@H]2CSCc3cc(cc(c3)OCCCCCCO/N=C/C(=O)N[C@@H](CCCCN)C(=O)N2)CSC[C@@H](C(N)=O)NC(=O)[C@H](CCC(=O)O)NC(=O)[C@H](Cc2ccc(O)cc2)NC(=O)[C@@H]2CCCN2C(=O)[C@H]([C@@H](C)O)NC(=O)[C@H](C)NC1=O` [compound 108, TSL6- SKCPLATPYEC] (KCPLATPYEC-NH2; linker N-2-10 via X3), the IC50 rises from 151 µM to greater than 500 µM. The first is the more potent here.

Compound `CC[C@H](C)[C@@H]1NC(=O)[C@H](C)NC(=O)[C@H](CC[S+](C)[O-])NC(=O)[C@@H]2CCCN2C(=O)[C@@H]2CSCc3cc(cc(c3)OCCCCCCO/N=C/C(=O)N[C@@H](CCC(N)=O)C(=O)N2)CSC[C@@H](C(N)=O)NC(=O)[C@H]([C@@H](C)O)NC(=O)[C@@H]2CCCN2C1=O` (stereo partly drawn) [compound 99, TSL6-SQCP{Ox-Met} AIPTC] (QCP[Met(O)]AIPTC-NH2; linker N-2-9 via X3) has an IC50 of 152 µM.

Same assay, conditions: competition ELISA, 4 μg/mL α4β7 coated, MAdCAM and peptide mixture, 28° C.; read-out: IC50

`C[C@@H]1NC(=O)[C@@H]2CCCN2C(=O)[C@@H]2CSCc3cc(cc(c3)OCCCCCCON=CC(=O)N[C@@H](CCCCN)C(=O)N2)CSC[C@@H](C(=O)O)NC(=O)[C@H](CCC(=O)O)NC(=O)[C@H](Cc2ccc(O)cc2)NC(=O)[C@@H]2CCCN2C(=O)[C@H]([C@@H](C)O)NC(=O)[C@H](CC(=O)O)NC1=O` [SEQ ID NO: 71] (KCPADTPYEC-OH; linker N-2-10 via X1) and `CC(C)C[C@@H]1NC(=O)[C@@H]2CCCN2C(=O)[C@@H]2CSCc3cc(cc(c3)OCCCCCCON=CC(=O)N[C@@H](CCCCN)C(=O)N2)CSC[C@@H](C(=O)O)NC(=O)[C@H](CCC(=O)O)NC(=O)[C@H](Cc2ccc(O)cc2)NC(=O)[C@@H]2CCCN2C(=O)[C@H]([C@@H](C)O)NC(=O)[C@H](C)NC1=O` [SEQ ID NO: 72] (KCPLATPYEC-OH; linker N-2-10 via X1) cannot be ordered by IC50: greater than 500 µM for the first, greater than 500 µM for the second.

Compound `CC[C@H](C)[C@@H]1NC(=O)[C@H](CC(=O)O)NC(=O)[C@H](CC(C)C)NC(=O)[C@H](CCCCN)NC(=O)[C@@H]2CSCc3cc(cc(c3)OCCCCCCON=CC(=O)N[C@@H](Cc3c[nH]cn3)C(=O)N2)CSC[C@@H](C(=O)O)NC(=O)[C@H](C(C)C)NC(=O)[C@H](Cc2c[nH]c3ccccc23)NC1=O` [SEQ ID NO: 73] (HCKLDIWVC-OH; linker N-2-9 via X1) has an IC50 greater than 500 µM.
